# Reference: patent publication US10085950B2, “Pharmaceutical composition for cancer treatment containing gossypol and phenformin as active ingredients” (NATIONAL CANCER CENTER, priority 2014, dated 2018)
# How the values were obtained:
# Format in all cases: cell-based
# [1] = test system: non-small cell lung cancer (NSCLC) cell lines (A549, H460, Hop-92, H23); assay: ATP level measurement with ATP assay kit after gossypol treatment; details: 1 μM gossypol for 1 hour; FIG. 1
# Protocol: To examine whether energy generation in cancer cells was inhibited by gossypol, which is […], non-small cell lung cancer (NSCLC) cell lines, for example, an A549 cell line, an H460 cell line, an Hop-92 cell line and an H23 cell line, were treated with 1 μM gossypol for 1 hour, followed by measuring ATP levels using an ATP assay kit (Biovision; #K354-100). As a control, normal lung epithelial cells were used.
# [2] = test system: lung cancer cell lines (A549/ATCC, HOP-62, HOP-92, NCI-H23, NCI-H460, NCI-H522); assay: SRB analysis of growth inhibition of lung cancer cell lines; details: 48 hours incubation, single treatment, FIG. 3, read-out: GI50 concentration (50% growth inhibition)
# Protocol: (§1) An SRB analysis was performed to examine the effect of gossypol on inhibiting the growth of cancer cell lines. Specifically, according to the doubling time of lung cancer cell lines, for example, A549/ATCC, HOP-62, HOP-92, NCI-H23, NCI-H460 or NCI-H522 cell lines, 5000 to 40000 cells were seeded per well and grown in a 96-well microtiter plate. After 24 hours, the cells were treated with […] of 0, 0.1, 1, 10 or 100 μM gossypol per well, and incubated at 37° C. for 48 hours. Subsequently, […] of 50% cold (4° C.) trichloroacetic acid (TCA) was added to each of the attached cell lines, and […] of 80% TCA was added to each of the suspended cell lines to fix the cells. Following the incubation of the plate at 4° C. for 1 to 3 hours, the TCA solution in the plate was discarded, and then the plate was rinsed with distilled water five times. The plate was dried at room temperature for approximately 12 to 24 hours, and then fixed cells were stained with […] of sulforhodamine B (SRB) at room temperature for 5 minutes. After staining, the plate was washed with 1% glacial acetic acid three times, and dried at room temperature for approximately 12 to 24 hours. The SRB dye was dissolved with 10 mM Trizma base, and an optical density was measured at 515 nm. The effect of gossypol on inhibiting cancer cells was represented as 50% growth inhibition (GI50).
# [3] = test system: cancer cell lines A549/ATCC and NCI-H460; assay: SRB analysis of single and combination treatment; details: 0.1-50 μM gossypol alone; FIGS. 5 and 6
# Protocol: as §1, with “(GI50). […]” for “(GI50).”
# [4] = test system: AMP-activated protein kinase (AMPK) phosphorylation in A549 lung cancer cell lines; assay: AMPK phosphorylation by western blotting; details: 1 μM for 0, 8, 16 or 24 hours; 0, 0.1, 0.5 or 1 μM for 24 hours; FIG. 4
# Protocol: To examine the anticancer effect according to the treatment time or concentration of gossypol, A549 lung cancer cell lines were treated with 1 μM gossypol for 0, 8, 16 or 24 hours, and then the phosphorylation of an AMP-activated protein kinase (AMPK), which is a critical protein for cancer cell division, was analyzed by western blotting.
# Also, after the individual treatment of 0, 0.1, 0.5 or 1 μM gossypol for 24 hours, AMPK phosphorylation was also analyzed by western blotting.
# A549 cell line = assay: ATP level measurement according to gossypol concentration; details: 0, 0.1 or 1 μM gossypol for 1 hour; FIG. 2
# Protocol: Also, to investigate a change of ATP levels according to the concentration of gossypol, an A549 cell line was treated with 0, 0.1 or 1 μM gossypol for 1 hour, followed by measuring ATP levels.
smiles,measurement,setting,value
Cc1cc2c(C(C)C)c(O)c(O)c(C=O)c2c(O)c1-c1c(C)cc2c(C(C)C)c(O)c(O)c(C=O)c2c1O [gossypol],levels of ATP production,[1],inhibited
same,GI50,[2],5 µM
same,"growth of the cancer cells, single treatment",[3],hardly inhibited
same,AMPK phosphorylation,[4],increased depending on the treatment time and concentration
same,"inhibition of the ATP production, concentration dependence",A549 cell line,dependent on the concentration of gossypol
